System: subcutaneous transplanted tumors (CT26, LL/2, A375, MNK-45, SK-OV-3)
Assay: Inhibition of growth of subcutaneous transplanted tumors in tumor-bearing mouse model
Format: in vivo
Details: 10 mg/kg
Text: Embodiment 4: Test of Anti-Tumor Effect (i.e., The Inhibition Effect on the Growth of Subcutaneous Transplanted Tumors in Animals) of the Anti-Tumor Compound Drug with a Tumor-Bearing Mouse Model
BALB/c ordinary mice and C57/BL6 ordinary mice, male, 18-20 g in weight, 7-8 weeks old, SPF grade, purchased from Shanghai SLAC Laboratory Animal Co., Ltd. [Laboratory Animal Quality Certificate Number: SCXK (Shanghai) 2007-0005].
Mice are given intravenous injections, and one dose group is set: cGAMP, 10 mg/kg; compound anti-tumor drug, 10 mg/kg
Positive control: cGAMP, 10 mg/kg in dose
Administration route: administration by intraperitoneal injection
Administration volume: 100 μl/animal
Number of times of administration: continuous administration for 21 days, once every day
Number of animals in each group: 10
Mouse colorectal cancer cell line CT26, mouse Lewis lung cancer cell line LL/2, human ovarian cancer cell line SK-OV-3, human melanoma cell line A375, and human gastric cancer cell line MNK-45, which are all purchased from the Cell Bank of the Chinese Academy of Sciences.
The administration is continued for 21 days. 21 days later, the mice are killed and the tumors are weighed. Tumor inhibition rate=[1−mean tumor weight of experimental group/mean tumor weight of group A)]×100%.
Data is expressed with x±s, and processed with SPSS10.0 software. […]

Q: For Nc1nc2c(ncn2[C@@H]2O[C@@H]3COP(=O)(O)O[C@H]4[C@@H](O)[C@H](n5cnc6c(N)ncnc65)O[C@@H]4COP(=O)(O)O[C@@H]2[C@@H]3O)c(=O)[nH]1 [cGAMP, Cyclic [G(2′,5′)pA(3′,5′)p]], which growth of tumors (once every day for 21 days, subcutaneous transplanted tumor models in mice) is on record?
A: Its growth of tumors is “obviously inhibit the growth of tumors”.

Q: And the “weights of tumors vs negative control group” value (after administration for 21 days, P<0.05, P<0.01)?
A: The value was “significantly lower than those of the negative control group”.

— patent US20210023115A1, “COMPOSITION OF ANTI-TUMOR COMPOUND DRUG AND APPLICATION THEREOF IN FIGHTING TUMORS” (HANGZHOU XINGAO BIOTECHNOLOGY CO. LTD, priority 2018, published 2021)
